ChEMBL document CHEMBL1614632, “Trend analysis of a database of intravenous pharmacokinetic parameters in humans for 670 drug compounds” (Drug Metab Dispos, 2008)

Legend:
clinical [1] = settings: human, in vivo, iv, Vdss
clinical [2] = settings: human, in vivo, iv, CL
clinical [3] = settings: human, in vivo, iv
clinical [4] = settings: human, in vivo, iv, t1/2

Q: Which Vd (clinical [1]) does the source give for `CN1CC[C@]23c4c5ccc(O)c4O[C@H]2[C@@H](O[C@@H]2O[C@H](C(=O)O)[C@@H](O)[C@H](O)[C@H]2O)C=C[C@H]3[C@H]1C5` [MORPHINE GLUCURONIDE] here?
A: Its Vd is 0.12 L/kg.

Q: What about the clearance (clinical [2]) of the same molecule?
A: The clearance was 2.2 mL/min/kg.

Q: What about the MRT (clinical [3]) of the same molecule?
A: Its MRT is 0.91 h.

Q: And the half-life (clinical [4])?
A: The half-life was 1.4 h.

Q: For `Nc1nc2c(ncn2CCC(CO)CO)c(=O)[nH]1` [PENCICLOVIR], which Vd (clinical [1]) is on record?
A: The Vd was 1.1 L/kg.

Q: What about the clearance (clinical [2]) of the same molecule?
A: Its clearance is 8.4 mL/min/kg.

Q: What about the MRT (clinical [3]) of the same molecule?
A: Its MRT is 2.4 h.

Q: What about the half-life (clinical [4]) of the same molecule?
A: The half-life was 2.1 h.

Q: What does the source list for `C=C(CC)C(=O)c1ccc(OCC(=O)O)c(Cl)c1Cl` [ETHACRYNIC ACID]?
A: Vd (clinical [1]): 0.26 L/kg; clearance (clinical [2]): 8.73 mL/min/kg; MRT (clinical [3]): 0.5 h; half-life (clinical [4]): 0.5 h

Q: Which results are given for `CC[C@]1(O)C[C@H]2CN(CCc3c([nH]c4ccccc34)[C@@](C(=O)OC)(c3cc4c(cc3OC)N(C=O)[C@H]3[C@@](O)(C(=O)OC)[C@H](OC(C)=O)[C@]5(CC)C=CCN6CC[C@]43[C@@H]65)C2)C1` [VINCRISTINE]?
A: Vd (clinical [1]): 2.4 L/kg; clearance (clinical [2]): 2 mL/min/kg; MRT (clinical [3]): 20 h; half-life (clinical [4]): 23 h

Q: What does the source list for `CN(C)CCN(Cc1cccs1)c1ccccn1`?
A: Vd (clinical [1]): 3.3 L/kg; clearance (clinical [2]): 28 mL/min/kg; MRT (clinical [3]): 2 h; half-life (clinical [4]): 1.6 h

Q: For `C=CC[N+]12CC[C@@]34c5ccccc5N5/C=C6/[C@H]7C[C@H]8[C@@]9(CC[N@@+]8(CC=C)C/C7=C/CO)c7ccccc7N(/C=C(/[C@@H](C[C@@H]31)/C(=C\CO)C2)[C@H]54)[C@@H]69` (stereo partly specified), which Vd (clinical [1]) is on record?
A: Its Vd is 0.32 L/kg.

Q: What about the clearance (clinical [2]) of the same molecule?
A: Its clearance is 1.3 mL/min/kg.

Q: What about the MRT (clinical [3]) of the same molecule?
A: The MRT was 4.1 h.

Q: What about the half-life (clinical [4]) of the same molecule?
A: Its half-life is 3.6 h.

Q: Which results are given for `Cc1cc(=O)n(-c2ccccc2)n1C` [ANTIPYRINE]?
A: Vd (clinical [1]): 0.77 L/kg; clearance (clinical [2]): 0.64 mL/min/kg; MRT (clinical [3]): 20 h; half-life (clinical [4]): 12 h

Q: What does the source list for `CC1(C)S[C@@H]2[C@H](NC(=O)C(C(=O)O)c3ccccc3)C(=O)N2[C@H]1C(=O)O` (stereo partly specified) [CARBENICILLIN]?
A: Vd (clinical [1]): 0.17 L/kg; clearance (clinical [2]): 1.9 mL/min/kg; MRT (clinical [3]): 1.5 h; half-life (clinical [4]): 1.1 h

Q: Which results are given for `O=C(CCCN1CCC(n2c(O)nc3ccccc32)CC1)c1ccc(F)cc1` [BENPERIDOL]?
A: Vd (clinical [1]): 3.8 L/kg; clearance (clinical [2]): 8.3 mL/min/kg; MRT (clinical [3]): 7.5 h; half-life (clinical [4]): 5.8 h

Q: Which Vd (clinical [1]) does the source give for `CN[C@@H]1[C@H](O)[C@H](NC)[C@H]2O[C@@]3(O)C(=O)C[C@@H](C)O[C@H]3O[C@@H]2[C@H]1O` [SPECTINOMYCIN] here?
A: The Vd was 0.13 L/kg.

Q: What about the clearance (clinical [2]) of the same molecule?
A: The clearance was 0.99 mL/min/kg.

Q: What about the MRT (clinical [3]) of the same molecule?
A: Its MRT is 2.2 h.

Q: What about the half-life (clinical [4]) of the same molecule?
A: The half-life was 1.8 h.

Q: What does the source list for `CCOc1cc(CC(=O)N[C@@H](CC(C)C)c2ccccc2N2CCCCC2)ccc1C(=O)O` [REPAGLINIDE]?
A: Vd (clinical [1]): 0.35 L/kg; clearance (clinical [2]): 7.8 mL/min/kg; MRT (clinical [3]): 0.75 h; half-life (clinical [4]): 0.87 h

Q: With `O=C(O)[C@@H]1C[C@@H](C2CCCCC2)CN1C(=O)CP(=O)(O)CCCCc1ccccc1` [FOSINOPRILAT] as the molecule, how does the Vd (clinical [1]) read?
A: Its Vd is 0.13 L/kg.

Q: And the clearance (clinical [2])?
A: The clearance was 0.32 mL/min/kg.

Q: What about the MRT (clinical [3]) of the same molecule?
A: Its MRT is 6.8 h.

Q: And the half-life (clinical [4])?
A: Its half-life is 9.4 h.

Q: Which Vd (clinical [1]) does the source give for `CCCC1O[C@@H]2C[C@H]3[C@@H]4CCC5=CC(=O)C=C[C@]5(C)[C@H]4[C@@H](O)C[C@]3(C)[C@]2(C(=O)CO)O1` (stereo partly specified) [BUDESONIDE] here?
A: The Vd was 3.9 L/kg.

Q: What about the clearance (clinical [2]) of the same molecule?
A: Its clearance is 20 mL/min/kg.

Q: And the MRT (clinical [3])?
A: Its MRT is 3.2 h.

Q: What about the half-life (clinical [4]) of the same molecule?
A: Its half-life is 2.8 h.

Q: Which results are given for `CCC(CC)COC(C(=O)OCCN(C)C)(c1ccccc1)c1ccccc1` [DENAVERINE]?
A: Vd (clinical [1]): 7.1 L/kg; clearance (clinical [2]): 5.7 mL/min/kg; MRT (clinical [3]): 21 h; half-life (clinical [4]): 34 h

Q: Which Vd (clinical [1]) does the source give for `CC(=O)N[C@H]1[C@H]([C@H](O)[C@H](O)CO)OC(C(=O)O)=C[C@@H]1N=C(N)N` [ZANAMIVIR] here?
A: The Vd was 0.23 L/kg.

Q: What about the clearance (clinical [2]) of the same molecule?
A: The clearance was 1.6 mL/min/kg.

Q: And the MRT (clinical [3])?
A: Its MRT is 2.4 h.

Q: What about the half-life (clinical [4]) of the same molecule?
A: The half-life was 1.7 h.

Q: Which results are given for `Cc1nnc2n1-c1ccc(Cl)cc1C(c1ccccc1)=NC2` [ALPRAZOLAM]?
A: Vd (clinical [1]): 0.8 L/kg; clearance (clinical [2]): 0.74 mL/min/kg; MRT (clinical [3]): 18 h; half-life (clinical [4]): 12 h

Q: Which Vd (clinical [1]) does the source give for `CCO[C@@H](Cc1ccc(OCCc2ccc(OS(C)(=O)=O)cc2)cc1)C(=O)O` [TESAGLITAZAR] here?
A: The Vd was 0.13 L/kg.

Q: What about the clearance (clinical [2]) of the same molecule?
A: The clearance was 0.039 mL/min/kg.

Q: And the MRT (clinical [3])?
A: The MRT was 56 h.

Q: What about the half-life (clinical [4]) of the same molecule?
A: The half-life was 45 h.

Q: Which Vd (clinical [1]) does the source give for `N=C(N)c1ccc(CNC(=O)[C@@H]2CCN2C(=O)[C@H](NCC(=O)O)C2CCCCC2)cc1` here?
A: Its Vd is 0.23 L/kg.

Q: What about the clearance (clinical [2]) of the same molecule?
A: The clearance was 1.9 mL/min/kg.

Q: What about the MRT (clinical [3]) of the same molecule?
A: The MRT was 2 h.

Q: And the half-life (clinical [4])?
A: Its half-life is 1.6 h.

Q: What does the source list for `CC[C@@]1(O)C(=O)OCc2c1cc1n(c2=O)Cc2c-1nc1cc(F)c(C)c3c1c2[C@@H](N)CC3` [EXATECAN]?
A: Vd (clinical [1]): 0.44 L/kg; clearance (clinical [2]): 0.96 mL/min/kg; MRT (clinical [3]): 7.6 h; half-life (clinical [4]): 6.7 h

Q: What does the source list for `NC(=O)NO` [HYDROXYUREA]?
A: Vd (clinical [1]): 0.52 L/kg; clearance (clinical [2]): 1.5 mL/min/kg; MRT (clinical [3]): 4.8 h; half-life (clinical [4]): 3.4 h

Q: Which results are given for `CC[C@H](C)C(=O)O[C@H]1C[C@@H](C)C=C2C=C[C@H](C)[C@H](CC[C@@H]3C[C@@H](O)CC(=O)O3)[C@H]21` [LOVASTATIN]?
A: Vd (clinical [1]): 0.87 L/kg; clearance (clinical [2]): 7.2 mL/min/kg; MRT (clinical [3]): 1.3 h; half-life (clinical [4]): 1.4 h

Q: Which results are given for `O=C(NCCNCC(O)COc1ccc(O)cc1)N1CCOCC1` (stereo unspecified) [XAMOTEROL]?
A: Vd (clinical [1]): 0.64 L/kg; clearance (clinical [2]): 3 mL/min/kg; MRT (clinical [3]): 3.6 h; half-life (clinical [4]): 7.7 h

Q: With `C[C@](N)(Cc1ccc(O)c(O)c1)C(=O)O` [METHYLDOPA] as the molecule, how does the Vd (clinical [1]) read?
A: The Vd was 0.69 L/kg.

Q: And the clearance (clinical [2])?
A: The clearance was 3.5 mL/min/kg.

Q: And the MRT (clinical [3])?
A: Its MRT is 3.3 h.

Q: What about the half-life (clinical [4]) of the same molecule?
A: The half-life was 5.9 h.

Q: Which Vd (clinical [1]) does the source give for `COc1ccc([C@]2(C#N)CC[C@@H](C(=O)O)CC2)cc1OC1CCCC1` [CILOMILAST] here?
A: The Vd was 0.23 L/kg.

Q: And the clearance (clinical [2])?
A: The clearance was 0.5 mL/min/kg.

Q: And the MRT (clinical [3])?
A: Its MRT is 8.5 h.

Q: And the half-life (clinical [4])?
A: The half-life was 7.9 h.
